Results reported in patent US20260248772A1, “NOVEL SULFANONE DERIVATIVE OR PHARMACEUTICALLY ACCEPTABLE SALT THEREOF, AND USE THEREOF” (KOREA INSTITUTE OF SCIENCE AND TECHNOLOGY, priority 2022, published 2026).
Structures can show the parent of a compound that is named as a salt.

What was measured:
CYP3A4 = CYP3A4 (Homo sapiens, UniProt P08684); assay: in vitro; conditions: human liver microsomes, pH 7.4, probe Midazolam […] (in five-substrate cocktail)
CYP1A2 = target: T1, CYP1A2 (Homo sapiens, UniProt P05177); assay: in vitro; conditions: human liver microsomes, pH 7.4, probe Phenacetin 50 μM (in five-substrate cocktail)
T1 sequence (P05177 1-516): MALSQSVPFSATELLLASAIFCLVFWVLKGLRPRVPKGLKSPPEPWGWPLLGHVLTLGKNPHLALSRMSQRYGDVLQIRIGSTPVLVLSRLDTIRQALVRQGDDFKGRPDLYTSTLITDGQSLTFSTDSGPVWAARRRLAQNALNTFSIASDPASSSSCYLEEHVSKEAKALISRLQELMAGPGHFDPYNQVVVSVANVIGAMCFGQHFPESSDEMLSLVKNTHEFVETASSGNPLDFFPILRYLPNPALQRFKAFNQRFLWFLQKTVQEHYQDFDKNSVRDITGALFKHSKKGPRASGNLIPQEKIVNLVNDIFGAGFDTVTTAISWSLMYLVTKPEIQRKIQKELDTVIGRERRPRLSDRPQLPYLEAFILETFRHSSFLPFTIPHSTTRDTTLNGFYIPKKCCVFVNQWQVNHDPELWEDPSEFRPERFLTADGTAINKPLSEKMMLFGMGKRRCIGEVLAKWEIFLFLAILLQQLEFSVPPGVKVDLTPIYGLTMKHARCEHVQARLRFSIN

CYP2C19 = CYP2C19 (Homo sapiens, UniProt P33261); assay: in vitro; conditions: human liver microsomes, pH 7.4, probe S-mephenytoin 100 μM (in five-substrate cocktail)
Sequence of CYP2C19 (P33261 whole entry): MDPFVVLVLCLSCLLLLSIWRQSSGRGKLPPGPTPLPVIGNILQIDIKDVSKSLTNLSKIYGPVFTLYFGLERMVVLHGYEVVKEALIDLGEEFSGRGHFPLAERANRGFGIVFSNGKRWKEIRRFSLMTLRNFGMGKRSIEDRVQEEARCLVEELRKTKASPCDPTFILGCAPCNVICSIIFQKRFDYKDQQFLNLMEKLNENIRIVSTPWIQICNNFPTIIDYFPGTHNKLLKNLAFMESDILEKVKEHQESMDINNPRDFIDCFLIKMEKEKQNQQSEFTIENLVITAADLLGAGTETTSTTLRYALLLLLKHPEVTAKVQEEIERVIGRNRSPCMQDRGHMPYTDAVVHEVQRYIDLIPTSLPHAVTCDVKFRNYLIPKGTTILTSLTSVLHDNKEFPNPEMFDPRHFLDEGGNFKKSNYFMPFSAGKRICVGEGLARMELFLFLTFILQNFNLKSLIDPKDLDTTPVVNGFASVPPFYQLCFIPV

[1] = test system: BV-2 mouse microglial cells; assay: NO (nitric oxide) inhibitory activity in LPS-treated microglial cells; type: cell-based; conditions: LPS 1 μg/ml, 24 hours, read-out: Amount of NO (% of control)
CYP2D6 = CYP2D6 (Homo sapiens, UniProt P10635); assay: in vitro; conditions: human liver microsomes, pH 7.4, probe Dextromethorphan 5 μM (in five-substrate cocktail)
Sequence of CYP2D6 (P10635 whole entry): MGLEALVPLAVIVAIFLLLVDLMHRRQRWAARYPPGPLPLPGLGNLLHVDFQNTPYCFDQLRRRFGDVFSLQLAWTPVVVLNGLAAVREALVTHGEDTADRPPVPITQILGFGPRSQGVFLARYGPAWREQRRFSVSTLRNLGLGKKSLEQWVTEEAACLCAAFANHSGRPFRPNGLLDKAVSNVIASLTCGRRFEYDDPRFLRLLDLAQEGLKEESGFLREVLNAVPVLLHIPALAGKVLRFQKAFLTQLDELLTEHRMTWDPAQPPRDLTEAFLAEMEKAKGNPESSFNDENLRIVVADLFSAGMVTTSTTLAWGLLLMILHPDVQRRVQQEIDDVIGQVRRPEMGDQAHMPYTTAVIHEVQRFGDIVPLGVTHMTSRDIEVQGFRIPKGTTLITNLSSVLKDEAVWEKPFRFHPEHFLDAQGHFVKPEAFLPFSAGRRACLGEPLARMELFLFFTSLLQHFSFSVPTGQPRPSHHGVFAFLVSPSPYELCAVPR

CYP2C9 = CYP2C9 (Homo sapiens, UniProt P11712); assay: in vitro; conditions: human liver microsomes, pH 7.4, probe Diclofenac 10 μM (in five-substrate cocktail)
Sequence of CYP2C9 (P11712 whole entry): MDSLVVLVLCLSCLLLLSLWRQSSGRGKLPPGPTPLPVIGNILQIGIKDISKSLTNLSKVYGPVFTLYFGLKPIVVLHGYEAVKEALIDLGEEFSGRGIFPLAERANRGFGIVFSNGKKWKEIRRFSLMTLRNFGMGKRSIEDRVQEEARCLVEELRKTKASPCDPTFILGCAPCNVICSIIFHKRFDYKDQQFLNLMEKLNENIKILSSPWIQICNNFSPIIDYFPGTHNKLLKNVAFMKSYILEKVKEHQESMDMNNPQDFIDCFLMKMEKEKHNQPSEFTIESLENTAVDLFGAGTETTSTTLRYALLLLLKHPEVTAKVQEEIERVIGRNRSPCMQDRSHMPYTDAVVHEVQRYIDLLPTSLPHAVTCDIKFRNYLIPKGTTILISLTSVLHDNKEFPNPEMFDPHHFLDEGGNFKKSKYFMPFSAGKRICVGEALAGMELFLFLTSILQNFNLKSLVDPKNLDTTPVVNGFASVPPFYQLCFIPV

[2] = Metabolic stability using liver microsomes; type: in vitro ADME, Human; conditions: for drug remaining after incubation with microsomes: after 30 minutes; for Human (% remaining): liver microsomes, 30 minutes at 37° C.
Nrf2 = Nrf2 functional cell-based assay (DiscoveRx), luminescence; conditions: U2OS cells; for EC50: 6 hours incubation, read-out: Nrf2 activation EC50
[3] = known; cited from earlier work
[4] = Metabolic stability using liver microsomes; type: in vitro ADME, Mouse; conditions: 30 minutes
[5] = Metabolic stability using liver microsomes; type: in vitro ADME, Rat; conditions: 30 minutes
Method: Therefore, in order to predict the extent of drug metabolism by the liver, the main organ for drug metabolism, through in vitro experiments, the metabolic stability of drugs was evaluated using liver microsomes.
Then, an NADPH regeneration system solution was added thereto and the mixed solution was incubated at 37° C. for 30 minutes.

Sequence of CYP3A4 (P08684 whole entry): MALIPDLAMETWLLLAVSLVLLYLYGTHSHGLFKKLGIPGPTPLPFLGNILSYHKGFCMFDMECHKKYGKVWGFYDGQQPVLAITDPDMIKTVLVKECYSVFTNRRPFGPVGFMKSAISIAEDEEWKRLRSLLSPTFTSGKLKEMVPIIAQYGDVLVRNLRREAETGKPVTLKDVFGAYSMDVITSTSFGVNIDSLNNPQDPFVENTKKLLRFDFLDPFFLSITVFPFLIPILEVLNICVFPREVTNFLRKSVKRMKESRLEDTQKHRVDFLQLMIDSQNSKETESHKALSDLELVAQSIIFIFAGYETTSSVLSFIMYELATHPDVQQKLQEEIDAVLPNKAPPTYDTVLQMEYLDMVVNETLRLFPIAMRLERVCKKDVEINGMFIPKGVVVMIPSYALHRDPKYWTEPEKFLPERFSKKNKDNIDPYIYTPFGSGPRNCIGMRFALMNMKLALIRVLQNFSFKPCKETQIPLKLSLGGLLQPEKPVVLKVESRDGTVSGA

Row | SMILES | activity at 15 min, 10 µM (CYP3A4) [%] | activity at 15 min, 10 µM (CYP1A2) [%] | activity at 15 min, 10 µM (CYP2C19) [%] | activity at 10 µM [1] [%] | activity at 15 min, 10 µM (CYP2D6) [%] | activity at 15 min, 10 µM (CYP2C9) [%] | other results
1 | N=S(=O)(/C=C/c1ccccn1)c1ccccc1F (stereo not drawn) [Compound 1-1, (E)-(2-Fluorophenyl)(imino)(2-(pyridin-2-yl)vinyl)-λ^6-sulfanone] | 121 | 87.8 | 66.9 | < 3 | 82.7 | 85.7 | activity at 0.1 µM [1]: 97%; activity at 1 µM [1]: 74.2%
2 | COc1ccc(S(=N)(=O)/C=C/c2ccccn2)cc1 (stereo not drawn) [Compound 1-2, (E)-Imino(4-methoxyphenyl)(2-(pyridin-2-yl)vinyl)-λ^6-sulfanone] | 97.5 | 88.9 | 70.4 | 35.8 | 98.6 | 96.6 | drug remaining after incubation with microsomes [2]: remained at a high concentration; activity at 0.1 µM [1]: 110%; activity at 1 µM [1]: 115%
3 | N=S(=O)(/C=C/c1ncccc1Cl)c1ccccc1Cl (stereo not drawn) [Compound 1-4, (E)-(2-chlorophenyl)(2-(3-chloropyridin-2-yl)vinyl)(imino)-λ^6-sulfanone] |  |  |  |  |  |  | drug remaining after incubation with microsomes [2]: remained at a high concentration
4 | N=S(=O)(/C=C/c1ncccc1F)c1ccccc1F (stereo not drawn) [Compound 1-5, (E)-(2-fluorophenyl)(2-(3-fluoropyridin-2-yl)vinyl)(imino)-λ^6-sulfanone] |  |  |  | 7.96 |  |  | activity at 0.1 µM [1]: 101%; activity at 1 µM [1]: 69.2%
5 | COc1ccccc1S(=N)(=O)/C=C/c1ncccc1Cl (stereo not drawn) [Compound 1-8, (E)-(2-(3-chloropyridin-2-yl)vinyl)(imino)(2-methoxyphenyl)-λ^6-sulfanone] | 78.4 | 84.4 | 24.4 | 14.2 | 93.9 | 192 | 
6 | COc1ccc(S(=N)(=O)/C=C/c2ncccc2Cl)cc1 (stereo not drawn) [Compound 1-10, (E)-(2-(3-chloropyridin-2-yl)vinyl)(imino)(4-methoxyphenyl)-λ^6-sulfanone] | 109 | 103 | 6 | < 3 | 112 | 133 | 
7 | N=S(=O)(/C=C/c1cccnc1)c1ccccc1Cl (stereo not drawn) [Compound 1-12, (E)-(2-chlorophenyl)(imino)(2-(pyridin-3-yl)vinyl)-λ^6-sulfanone] | 104 | 86.8 | 68.2 |  | 94.4 | 87.1 | EC50 (Nrf2): > 10000 nM
8 | N=S(=O)(/C=C/c1cccnc1Cl)c1ccccc1Cl (stereo not drawn) [Compound 1-13, (E)-(2-chlorophenyl)(2-(2-chloropyridin-3-yl)vinyl)(imino)-λ^6-sulfanone] | 59.8 | 93.3 | 27.8 | 9.26 | 95.7 | 169 | 
9 | N=S(=O)(/C=C/c1cccc(Cl)c1)c1ccccn1 (stereo not drawn) [Compound 1-16, (E)-(3-chlorostyryl)(imino)(pyridin-2-yl)-λ^6-sulfanone] |  |  |  | < 3 |  |  | 
10 | N=S(=O)(/C=C/c1ccccc1C(F)(F)F)c1ccccn1 (stereo not drawn) [Compound 1-17, (E)-imino(pyridin-2-yl)(2-(trifluoromethyl)styryl)-λ^6-sulfanone] |  |  |  | < 3 |  |  | 
11 | N=S(=O)(/C=C/c1ccccc1OC(F)(F)F)c1ccccn1 (stereo not drawn) [Compound 1-18, (E)-imino(pyridin-2-yl)(2-(trifluoromethoxy)styryl)-λ^6-sulfanone] |  |  |  | < 3 |  |  | 
12 | N=S(=O)(/C=C/c1ccc(Cl)cc1)c1ccccn1 (stereo not drawn) [Compound 1-20, (E)-(4-chlorostyryl)(imino)(pyridin-2-yl)-λ^6-sulfanone] |  |  |  | 20.3 |  |  | 
13 | C[Si](C)(C)N=S(=O)(/C=C/c1ccccc1Cl)c1ccncc1F (stereo not drawn) [Compound 1-46, (E)-(2-chlorostyryl)(3-fluoropyridin-4-yl)((trimethylsilyl)imino)-λ^6-sulfanone] |  |  |  |  |  |  | Nrf2 activation effect compared with Sulforaphane (Nrf2): better Nrf2 activation effect than Sulforaphane
14 | N=S(=O)(/C=C/c1ncccc1F)c1ccc(OCCCN2CCOCC2)cn1 (stereo not drawn) [Compound 1-53, (E)-(2-(3-fluoropyridin-2-yl)vinyl)(imino)(5-(3-morpholinopropoxy)pyridin-2-yl)-λ^6-sulfanone] |  |  |  |  |  |  | EC50 (Nrf2): 604 nM
15 | COc1ccccc1S(=O)(/C=C/c1ccccc1Cl)=NC#N (stereo not drawn) [Compound 1-57, (E)-N-((2-chlorostyryl)(2-methoxyphenyl)(oxo)-λ^6-sulfanylidene)cyanamide] |  |  |  |  |  |  | Nrf2 activation effect compared with Sulforaphane (Nrf2): better Nrf2 activation effect than Sulforaphane
16 | COc1ccccc1S(=O)(/C=C/c1ncccc1Cl)=NC#N (stereo not drawn) [Compound 1-58, (E)-N-((2-(3-chloropyridin-2-yl)vinyl)(2-methoxyphenyl)(oxo)-λ^6-sulfaneylidene)cyanamide] |  |  |  |  |  |  | EC50 (Nrf2): 658 nM
17 | COC(=O)/C=C/C(=O)OC [DMF, Dimethyl fumarate, reference compound] |  |  |  | 16.3 |  |  | activity at 0.1 µM [1]: 113%; activity at 1 µM [1]: 60%
18 | C[S+]([O-])CCCCN=C=S (stereo not drawn) [Sulforaphane, 1-isothiocyanato-4-methylsulfinylbutane] |  |  |  |  |  |  | concentration at which high toxicity is exhibited [3]: ≥ 5 M
19 | O=S(=O)(/C=C/c1ncccc1Cl)c1ccccc1F [drawing 157, reference compound] | 105 | 95.8 | 16.6 |  | 86.1 | 45.5 | 
20 | O=S(=O)(/C=C/c1ncccc1Cl)c1ccccc1F [drawing 173] |  |  |  |  |  |  | Human (% remaining) [2]: 72 % remaining; Mouse (% remaining) [4]: 19 % remaining; Rat (% remaining) [5]: 23 % remaining
21 | O=S(=O)(/C=C/c1ccccn1)c1ccccc1F [reference compound] | 104 | 93 | 38.4 |  | 92.4 | 230 | 
22 | COc1ccccc1S(=O)(=O)/C=C/c1ncccc1Cl [reference compound] |  |  |  |  |  | 209 | 
23 | COc1ccc(S(=O)(=O)/C=C/c2ncccc2Cl)cc1 [reference compound] |  |  |  |  |  | 196 | 
24 | O=S(=O)(/C=C/c1cccnc1)c1ccccc1Cl [reference compound] | 74.2 | 84 | 33.4 |  | 101 | 118 | 
25 | O=S(=O)(/C=C/c1cccnc1Cl)c1ccccc1Cl [reference compound] | 81.2 | 85.6 | 28.3 |  | 93.8 | 88.7 | 
26 | O=S(=O)(/C=C/c1ncccc1Cl)c1ccccc1Cl [reference compound] |  |  |  |  |  |  | Human (% remaining) [2]: 66 % remaining; Mouse (% remaining) [4]: 4.5 % remaining
